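All cell lines were grown in 96-well plates and treated with compound for 48 hours. GI50 is the concentration that inhibits growth by half.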 Active and inactive are the calls of the source. Rule as the data show it: active = GI50 up to about 1.1 µM and inactive = higher.
Assays:
Assay in all cases: growth of human tumour cells (NCI), 48 h
OVCAR-5 = tested on: OVCAR-5
LOX IMVI = tested on: LOX IMVI
HOP-62 = tested on: HOP-62
NCI-H23 = tested on: NCI-H23
MOLT-4 = tested on: MOLT-4
SF-539 = tested on: SF-539
UO-31 = tested on: UO-31
NCI-H226 = tested on: NCI-H226
NCI-H460 = tested on: NCI-H460
CAKI-1 = tested on: CAKI-1
OVCAR-3 = tested on: OVCAR-3
UACC-257 = tested on: UACC-257
PC-3 = tested on: PC-3
TK-10 = tested on: TK-10
RPMI-8226 = tested on: RPMI-8226
SW-620 = tested on: SW-620
SNB-75 = tested on: SNB-75
UACC-62 = tested on: UACC-62
MDA-MB-231 = tested on: MDA-MB-231
786-0 = tested on: 786-0

SMILES	GI50 (OVCAR-5)	GI50 (LOX IMVI)	GI50 (HOP-62)	GI50 (NCI-H23)	GI50 (MOLT-4)	GI50 (SF-539)	GI50 (UO-31)	GI50 (NCI-H226)	GI50 (NCI-H460)	GI50 (CAKI-1)	GI50 (OVCAR-3)	GI50 (UACC-257)	GI50 (PC-3)	GI50 (TK-10)	GI50 (RPMI-8226)	GI50 (SW-620)	GI50 (SNB-75)	GI50 (UACC-62)	GI50 (MDA-MB-231)	GI50 (786-0)
CC(=O)O[C@@H]1CN(S(=O)(=O)c2ccc(C)cc2)C[C@@H]1C1CCCCC1	26.7 µM (inactive)	24.6 µM (inactive)	21.9 µM (inactive)	38.5 µM (inactive)	25.5 µM (inactive)	< 0.01 µM (active)	31 µM (inactive)	16.5 µM (inactive)	34.5 µM (inactive)	19 µM (inactive)	15 µM (inactive)	15.4 µM (inactive)	18.3 µM (inactive)	14.2 µM (inactive)	25.5 µM (inactive)	20.4 µM (inactive)	19.8 µM (inactive)	16.1 µM (inactive)		
CC1(C)CC[C@]2(C(=O)O)CC[C@]3(C)C(=CC[C@@H]4[C@@]5(C)CC[C@@H]6OC(C)(C)OC[C@@]6(C)[C@@H]5CC[C@]43C)[C@H]2C1	16.8 µM (inactive)	4.8 µM (inactive)	10.1 µM (inactive)	3.91 µM (inactive)	11.5 µM (inactive)	15.1 µM (inactive)	12.1 µM (inactive)		5.46 µM (inactive)	9.91 µM (inactive)	4.54 µM (inactive)	13.2 µM (inactive)	5.4 µM (inactive)	11.6 µM (inactive)	6 µM (inactive)	14.5 µM (inactive)	11 µM (inactive)	10.4 µM (inactive)	3.04 µM (inactive)	10 µM (inactive)
COc1ccccc1C1c2cc3c(cc2OC(N2CCCC2)C1C)OCO3 (stereo unspecified)	19.2 µM (inactive)	16.9 µM (inactive)	15.1 µM (inactive)	18.3 µM (inactive)	3.16 µM (inactive)	14.9 µM (inactive)	10.4 µM (inactive)		16.4 µM (inactive)	9.84 µM (inactive)	15.7 µM (inactive)	20.4 µM (inactive)	16 µM (inactive)	18.5 µM (inactive)	14.8 µM (inactive)	18 µM (inactive)	12.9 µM (inactive)	16.2 µM (inactive)		16.8 µM (inactive)
CC(=O)n1[nH]c(=O)n(-c2ccc(Cl)cc2)c1=O	> 100 µM (inactive)	> 100 µM (inactive)	> 100 µM (inactive)	> 100 µM (inactive)	> 100 µM (inactive)		> 100 µM (inactive)	> 100 µM (inactive)	> 100 µM (inactive)	> 100 µM (inactive)	> 100 µM (inactive)	> 100 µM (inactive)	> 100 µM (inactive)	> 100 µM (inactive)	> 100 µM (inactive)	> 100 µM (inactive)		> 100 µM (inactive)	> 100 µM (inactive)	> 100 µM (inactive)
Fc1ccc(/N=N/N2CCCC2)cc1	> 100 µM (inactive)	4.94 µM (inactive)	> 100 µM (inactive)	> 100 µM (inactive)	32.1 µM (inactive)	> 100 µM (inactive)	27 µM (inactive)	> 100 µM (inactive)	15.7 µM (inactive)	> 100 µM (inactive)	> 100 µM (inactive)	57.4 µM (inactive)		62.4 µM (inactive)	22.3 µM (inactive)	> 100 µM (inactive)		7.08 µM (inactive)	> 100 µM (inactive)	> 100 µM (inactive)
C=CC(C)(O)/C=C/C=C(\C)C(CC1OC1(C)C)OC(=O)/C(C)=C\C (stereo unspecified)	> 100 µM (inactive)	> 100 µM (inactive)	> 100 µM (inactive)	> 100 µM (inactive)	> 100 µM (inactive)	> 100 µM (inactive)	> 100 µM (inactive)		> 100 µM (inactive)	> 100 µM (inactive)	> 100 µM (inactive)	> 100 µM (inactive)	> 100 µM (inactive)	> 100 µM (inactive)	> 100 µM (inactive)	> 100 µM (inactive)	> 100 µM (inactive)	> 100 µM (inactive)	> 100 µM (inactive)	> 100 µM (inactive)
COc1cc(C2SCC(=O)N2c2ccccc2Cl)cc(OC)c1OC (stereo unspecified)	> 100 µM (inactive)	> 100 µM (inactive)		> 100 µM (inactive)		> 100 µM (inactive)	> 100 µM (inactive)	> 100 µM (inactive)	> 100 µM (inactive)	> 100 µM (inactive)	> 100 µM (inactive)	> 100 µM (inactive)	> 100 µM (inactive)	> 100 µM (inactive)	90.2 µM (inactive)	> 100 µM (inactive)		> 100 µM (inactive)	> 100 µM (inactive)	> 100 µM (inactive)
C=C[C@H]1CC[C@H]2[C@@H]3CC=C4C[C@@H](OC5OCC(O)C(O)C5O)CC[C@]4(C)[C@H]3CC[C@]12C (stereo partly specified)	11.7 µM (inactive)	10.8 µM (inactive)	18 µM (inactive)	26.1 µM (inactive)	46.6 µM (inactive)	14.9 µM (inactive)	13.3 µM (inactive)	15.5 µM (inactive)	13.1 µM (inactive)	6.62 µM (inactive)	11.9 µM (inactive)	82.8 µM (inactive)	14.3 µM (inactive)		81.7 µM (inactive)	17.7 µM (inactive)		15.5 µM (inactive)	11.4 µM (inactive)	15.3 µM (inactive)
N/C(=N\c1ccc(Cl)cc1)NS(=O)(=O)c1cc(Cl)c(Oc2ccc([N+](=O)[O-])cc2Cl)c(Cl)c1	19.7 µM (inactive)	16.1 µM (inactive)		16.8 µM (inactive)	14.8 µM (inactive)	16.6 µM (inactive)	18.8 µM (inactive)	17.1 µM (inactive)	18.4 µM (inactive)	17.2 µM (inactive)	16.8 µM (inactive)	16.6 µM (inactive)	16.2 µM (inactive)	18.2 µM (inactive)		20 µM (inactive)	17.1 µM (inactive)	12.2 µM (inactive)	16.6 µM (inactive)	18.9 µM (inactive)
CC(C)CCc1n[nH]c(=O)n1/N=C\c1ccccc1	> 100 µM (inactive)	> 100 µM (inactive)	> 100 µM (inactive)	> 100 µM (inactive)	67.8 µM (inactive)	> 100 µM (inactive)	26.4 µM (inactive)	> 100 µM (inactive)	> 100 µM (inactive)	> 10 µM (inactive)	> 100 µM (inactive)	> 100 µM (inactive)		> 100 µM (inactive)		> 100 µM (inactive)	> 100 µM (inactive)	> 100 µM (inactive)	> 100 µM (inactive)	> 100 µM (inactive)
CC(C)OC(=O)C1=C2c3ncccc3C(=O)N2[C@@H](Cl)[C@@H](Cl)[C@@H]1Cl	> 100 µM (inactive)	> 100 µM (inactive)	> 100 µM (inactive)	> 100 µM (inactive)	31.8 µM (inactive)	> 100 µM (inactive)	> 100 µM (inactive)	> 100 µM (inactive)	> 100 µM (inactive)	> 100 µM (inactive)	> 100 µM (inactive)	> 100 µM (inactive)	> 100 µM (inactive)	> 100 µM (inactive)	29.8 µM (inactive)	34.9 µM (inactive)		> 100 µM (inactive)	> 100 µM (inactive)	73.8 µM (inactive)
CN(C(=O)Cc1ccc(Cl)c(Cl)c1)[C@H]1CCCC[C@@H]1[N+]1(C)CCCC1	> 100 µM (inactive)	> 100 µM (inactive)	> 100 µM (inactive)	> 100 µM (inactive)	> 100 µM (inactive)	> 100 µM (inactive)	> 100 µM (inactive)	> 100 µM (inactive)		> 100 µM (inactive)	> 100 µM (inactive)	> 100 µM (inactive)	> 100 µM (inactive)	> 100 µM (inactive)	> 100 µM (inactive)	> 100 µM (inactive)		> 100 µM (inactive)	> 100 µM (inactive)	> 100 µM (inactive)
O=C1/C(=C\c2cccc(Oc3ccccc3)c2)SC(c2ccccc2)N1c1ccccc1 (stereo unspecified)	> 100 µM (inactive)	31.9 µM (inactive)	> 100 µM (inactive)	92.5 µM (inactive)	23.2 µM (inactive)	26.5 µM (inactive)	> 100 µM (inactive)	> 100 µM (inactive)	> 100 µM (inactive)	> 100 µM (inactive)	95.7 µM (inactive)	52.1 µM (inactive)		> 100 µM (inactive)	14.8 µM (inactive)	12.4 µM (inactive)		43.3 µM (inactive)	> 100 µM (inactive)	> 100 µM (inactive)
COC(C(=O)NN)c1ccccc1 (stereo unspecified)	> 100 µM (inactive)		> 100 µM (inactive)	> 100 µM (inactive)	> 100 µM (inactive)	> 100 µM (inactive)	> 100 µM (inactive)	> 100 µM (inactive)	> 100 µM (inactive)	> 100 µM (inactive)	> 100 µM (inactive)	> 100 µM (inactive)	> 100 µM (inactive)	> 100 µM (inactive)	> 100 µM (inactive)	> 100 µM (inactive)	27.8 µM (inactive)	> 100 µM (inactive)		> 100 µM (inactive)
O=[N+]([O-])c1cn[n+]([O-])c2ccccc12	12.4 µM (inactive)	6.67 µM (inactive)	12.9 µM (inactive)	14.7 µM (inactive)	1.71 µM (inactive)	10.4 µM (inactive)		7.36 µM (inactive)	4.61 µM (inactive)	2.56 µM (inactive)	2.55 µM (inactive)	11.4 µM (inactive)	8.28 µM (inactive)	12.9 µM (inactive)	2.03 µM (inactive)	1.98 µM (inactive)			13.2 µM (inactive)	2.43 µM (inactive)

— ChEMBL document CHEMBL1201862, “PubChem BioAssay data set” (2004)
